According to PMC6438784 (Saudi Pharmaceutical Journal : SPJ, 2019):
Like-named read-outs stand apart in the source and are kept apart here.

What was measured:
UGT1A6 [1] = settings: UGT1A6 inhibition; ref Sridar et al., 2004; cited from earlier work
CYP2C8 [2] = target: T1, CYP2C8 (Homo sapiens, UniProt P10632); assay: CYP2C8 inhibition in pooled HLM, amodiaquine to desethylamodiaquine; type: in vitro ADME; settings: for IC50: amodiaquine
T1 sequence (P10632 1-490): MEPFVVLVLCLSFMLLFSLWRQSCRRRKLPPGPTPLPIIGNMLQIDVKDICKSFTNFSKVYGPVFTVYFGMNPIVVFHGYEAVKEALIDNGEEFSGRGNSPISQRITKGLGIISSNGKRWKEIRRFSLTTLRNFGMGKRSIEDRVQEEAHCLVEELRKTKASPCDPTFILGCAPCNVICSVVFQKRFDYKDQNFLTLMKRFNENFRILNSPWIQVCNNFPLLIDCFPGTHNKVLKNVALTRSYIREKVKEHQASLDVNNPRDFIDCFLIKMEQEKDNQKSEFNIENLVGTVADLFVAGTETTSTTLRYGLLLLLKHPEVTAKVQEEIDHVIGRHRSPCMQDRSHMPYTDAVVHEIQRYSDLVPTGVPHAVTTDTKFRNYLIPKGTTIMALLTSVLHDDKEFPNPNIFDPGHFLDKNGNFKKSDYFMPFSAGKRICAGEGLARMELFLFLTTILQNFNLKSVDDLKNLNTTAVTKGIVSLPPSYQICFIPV

CYP2C8 [3] = target: T1, CYP2C8; assay: CYP2C8 inhibition in pooled HLM, pioglitazone to hydroxypioglitazone; type: in vitro ADME
UGT1A1 = target: T2, UGT1A1 (Homo sapiens, UniProt P22309); assay: UGT1A1 inhibition in HLM, β-estradiol glucuronidation; type: in vitro ADME
T2 sequence (P22309 26-533): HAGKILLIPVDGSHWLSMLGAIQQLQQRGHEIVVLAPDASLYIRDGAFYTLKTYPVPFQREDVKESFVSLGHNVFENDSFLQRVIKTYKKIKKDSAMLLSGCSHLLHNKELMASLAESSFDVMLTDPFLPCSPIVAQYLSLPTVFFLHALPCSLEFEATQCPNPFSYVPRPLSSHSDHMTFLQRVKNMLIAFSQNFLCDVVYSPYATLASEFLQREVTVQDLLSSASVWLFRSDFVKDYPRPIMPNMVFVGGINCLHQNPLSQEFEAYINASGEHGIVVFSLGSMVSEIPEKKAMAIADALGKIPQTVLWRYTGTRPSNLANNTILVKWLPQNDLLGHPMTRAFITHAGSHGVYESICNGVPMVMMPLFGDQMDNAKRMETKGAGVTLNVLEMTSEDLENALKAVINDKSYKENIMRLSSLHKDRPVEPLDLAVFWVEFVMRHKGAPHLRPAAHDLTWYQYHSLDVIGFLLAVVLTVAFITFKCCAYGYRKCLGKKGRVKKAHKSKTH

UGT1A6 [4] = target: T3, UGT1A6 (Homo sapiens, UniProt P19224); assay: UGT1A6 inhibition in HLM, serotonin glucuronidation; type: in vitro ADME; settings: for IC50: HLM
T3 sequence (P19224 27-532): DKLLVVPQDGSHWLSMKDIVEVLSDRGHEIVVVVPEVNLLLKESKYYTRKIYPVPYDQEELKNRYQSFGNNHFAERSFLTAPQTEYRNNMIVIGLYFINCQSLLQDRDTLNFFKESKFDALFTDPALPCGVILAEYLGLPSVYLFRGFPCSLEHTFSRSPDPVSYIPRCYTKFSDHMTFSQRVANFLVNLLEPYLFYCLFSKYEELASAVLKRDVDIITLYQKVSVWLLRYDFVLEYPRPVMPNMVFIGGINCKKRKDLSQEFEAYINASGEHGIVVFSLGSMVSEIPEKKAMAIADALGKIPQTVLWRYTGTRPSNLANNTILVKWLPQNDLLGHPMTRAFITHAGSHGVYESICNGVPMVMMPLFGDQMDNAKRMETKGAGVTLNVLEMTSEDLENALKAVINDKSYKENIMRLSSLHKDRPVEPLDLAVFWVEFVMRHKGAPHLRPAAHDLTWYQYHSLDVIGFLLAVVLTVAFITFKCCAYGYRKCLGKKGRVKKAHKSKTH

UGT1A9 = target: T4, UGT1A9 (Homo sapiens, UniProt O60656); assay: UGT1A9 inhibition in HLM, mycophenolic acid glucuronidation; type: in vitro ADME
T4 sequence (O60656 26-530): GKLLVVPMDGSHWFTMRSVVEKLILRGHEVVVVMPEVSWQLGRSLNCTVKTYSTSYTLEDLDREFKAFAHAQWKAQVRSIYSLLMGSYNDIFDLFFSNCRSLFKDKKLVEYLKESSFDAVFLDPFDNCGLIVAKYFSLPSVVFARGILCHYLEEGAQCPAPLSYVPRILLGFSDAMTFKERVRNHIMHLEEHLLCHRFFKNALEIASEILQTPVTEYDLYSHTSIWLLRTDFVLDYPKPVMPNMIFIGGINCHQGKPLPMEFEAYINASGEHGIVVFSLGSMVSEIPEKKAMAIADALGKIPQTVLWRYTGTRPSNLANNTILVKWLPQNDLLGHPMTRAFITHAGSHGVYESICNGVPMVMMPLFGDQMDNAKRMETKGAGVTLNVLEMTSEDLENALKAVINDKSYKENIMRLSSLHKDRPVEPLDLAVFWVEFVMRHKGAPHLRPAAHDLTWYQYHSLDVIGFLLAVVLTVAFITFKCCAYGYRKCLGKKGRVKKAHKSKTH

UGT1A8/10 = UGT1A8/10 inhibition in HIM, mycophenolic acid glucuronidation; type: in vitro ADME, human
[5] = rats, ref Yeo et al., 2013, cited from earlier work
[6] = ref Riche et al., 2013, cited from earlier work
[7] = rats; ref Kapetanovic et al., 2011; cited from earlier work
[8] = initial screening, RDI 250 mg / rough IC50

SMILES: COc1cc(C2Oc3cc([C@H]4Oc5cc(O)cc(O)c5C(=O)[C@@H]4O)ccc3OC2CO)ccc1O (some centres unmarked) [Silybin]
- IC50 (UGT1A6 [1]): 28 µM

SMILES: COc1cc(/C=C/c2ccc(O)cc2)cc(OC)c1 [pterostilbene]
- IC50 (CYP2C8 [2]; Precise IC50, confirmatory experiment, HLM, mean ± SE): 3.12 µM
- IC50 (CYP2C8 [2]; Rough IC50, initial screening, pooled HLM, desethylamodiaquine formation, mean ± standard error): 26.9 ± 5.6 µM
- V/D index (CYP2C8 [2]; [8]): 36.30 L/dose
- IC50 (CYP2C8 [3]): 17.9 ± 2.2 µM
- IC50 (UGT1A1; Rough IC50, initial screening, HLM, β-estradiol): > 500 µM
- inhibition at 30 min (UGT1A1; human, human liver microsomes, pH 7.4, probe β-estradiol (25 μM)): < 50%
- V/D index (UGT1A1; [8]): <2 L/dose
- IC50 (UGT1A6 [4]; Precise IC50, confirmatory experiment, serotonin, mean ± SE): 15 µM
- IC50 (UGT1A6 [4]; Rough IC50, initial screening, serotonin glucuronide formation, mean ± standard error): 26.7 ± 40.7 µM
- V/D index (UGT1A6 [4]; [8]): 36.50 L/dose
- IC50 (UGT1A9): > 100 µM
- inhibition at 30 min (UGT1A9; human, human liver microsomes, pH 7.4, probe mycophenolic acid (240 μM)): < 50%
- V/D index (UGT1A9; [8]): 3.89 L/dose
- IC50 at 30 min (UGT1A8/10; human, human intestinal microsomes, pH 7.4, probe mycophenolic acid (70 μM)): 92.7 ± 18.4 µM
- VDI (UGT1A8/10; initial screening): 10.5 L
- V/D index (UGT1A8/10; [8]): 10.53 L/dose
- Decrease of bioavailability by fasting ([5]; fasting): ~55%
- Clearance ([5]; intravenous dose of 2.5 mg/kg): rapid
- Bioavailability ([5]; oral aqueous solution): 15%
- Effect on blood pressure ([6]; 250 mg daily dose): reduction in blood pressure
- Safety of long term use ([6]; humans, 250 mg/day): safe

SMILES: Oc1ccc(/C=C/c2cc(O)cc(O)c2)cc1 [resveratrol]
- Bioavailability [7]: 20%
